# Reference: the kinase profiling compilation of Christmann-Franck et al. (2016)
# Experiments:
# Experiment in all cases: radiometric filter-binding kinase assay, Kinase HotSpot
# Details in all cases: compound 0.5 µM; ATP 10 µM
# [1] = biological target: PDPK1 (human) (UniProt O15530)
# [2] = biological target: LRRK2 (human) (UniProt Q5S007)
# [3] = biological target: PRKCB2 (human) (UniProt P05771)
# [4] = biological target: SGK2 (human) (UniProt Q9HBY8)
# [5] = biological target: SIK2 (human) (UniProt Q9H0K1)
# [6] = biological target: NEK11 (human) (UniProt Q8NG66)
# [7] = biological target: DYRK2 (human) (UniProt Q92630)
# [8] = biological target: MAPK10 (human) (UniProt P53779)
# [9] = biological target: FGFR2 (human) (UniProt P21802)
# [10] = biological target: MAPK14 (human) (UniProt Q16539)
# [11] = biological target: TEK (human) (UniProt Q02763)
# [12] = biological target: PAK4 (human) (UniProt O96013)
# [13] = biological target: SRPK2 (human) (UniProt P78362)
# [14] = biological target: GRK5 (human) (UniProt P34947)
# [15] = biological target: CAMK1D (human) (UniProt Q8IU85)
# [16] = biological target: WEE1 (human) (UniProt P30291)
# [17] = biological target: MST1R (human) (UniProt Q04912)
# [18] = biological target: MAPK12 (human) (UniProt P53778)
# [19] = biological target: TYRO3 (human) (UniProt Q06418)
# [20] = biological target: PTK2 (human) (UniProt Q05397)
# [21] = biological target: NLK (human) (UniProt Q9UBE8)
# [22] = biological target: MELK (human) (UniProt Q14680)
# [23] = biological target: NEK2 (human) (UniProt P51955)
# [24] = biological target: YES1 (human) (UniProt P07947)
# [25] = biological target: PKN1 (human) (UniProt Q16512)
# [26] = biological target: SRMS (human) (UniProt Q9H3Y6)
# [27] = biological target: TAOK3 (human) (UniProt Q9H2K8)
# [28] = biological target: WNK2 (human) (UniProt Q9Y3S1)
# [29] = biological target: HCK (human) (UniProt P08631)
# [30] = biological target: RPS6KA1 KD1 KD2 (human) (UniProt Q15418)
# [31] = biological target: LTK (human) (UniProt P29376)
# [32] = biological target: CAMKK1 (human) (UniProt Q8N5S9)
# [33] = biological target: TGFBR1 (human) (UniProt P36897)
# [34] = biological target: CSNK1G2 (human) (UniProt P78368)
# [35] = biological target: CDK4 CCND1 (human) (UniProt P24385+P11802)
# [36] = biological target: CSNK2A1 (human) (UniProt P68400)
# [37] = biological target: MAPK8 (human) (UniProt P45983)
# [38] = biological target: CAMK4 (human) (UniProt Q16566)
# [39] = biological target: RPS6KB2 (human) (UniProt Q9UBS0)
# [40] = biological target: TSSK1B (human) (UniProt Q9BXA7)
# [41] = biological target: MAP3K9 (human) (UniProt P80192)
# [42] = biological target: PRKCZ (human) (UniProt Q05513)
# MELK (human), sequence (Q14680 whole entry, looked up): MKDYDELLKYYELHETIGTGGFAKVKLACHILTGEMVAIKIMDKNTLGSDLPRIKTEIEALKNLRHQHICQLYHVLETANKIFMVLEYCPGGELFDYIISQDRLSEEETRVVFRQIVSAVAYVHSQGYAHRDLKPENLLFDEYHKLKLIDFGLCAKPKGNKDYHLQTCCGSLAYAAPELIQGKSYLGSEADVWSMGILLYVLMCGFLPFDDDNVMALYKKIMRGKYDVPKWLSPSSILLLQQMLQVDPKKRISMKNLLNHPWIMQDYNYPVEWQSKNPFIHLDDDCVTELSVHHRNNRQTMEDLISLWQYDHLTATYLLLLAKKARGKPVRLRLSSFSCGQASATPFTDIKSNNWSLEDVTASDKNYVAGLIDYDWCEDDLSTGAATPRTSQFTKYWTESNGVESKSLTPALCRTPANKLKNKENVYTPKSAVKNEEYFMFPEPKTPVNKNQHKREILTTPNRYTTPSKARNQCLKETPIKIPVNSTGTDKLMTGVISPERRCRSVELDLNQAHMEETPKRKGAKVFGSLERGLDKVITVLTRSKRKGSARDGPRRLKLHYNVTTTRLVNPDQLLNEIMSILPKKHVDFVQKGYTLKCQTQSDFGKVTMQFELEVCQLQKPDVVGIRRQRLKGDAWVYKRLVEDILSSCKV
# CAMK4 (human), sequence (Q16566 whole entry, looked up): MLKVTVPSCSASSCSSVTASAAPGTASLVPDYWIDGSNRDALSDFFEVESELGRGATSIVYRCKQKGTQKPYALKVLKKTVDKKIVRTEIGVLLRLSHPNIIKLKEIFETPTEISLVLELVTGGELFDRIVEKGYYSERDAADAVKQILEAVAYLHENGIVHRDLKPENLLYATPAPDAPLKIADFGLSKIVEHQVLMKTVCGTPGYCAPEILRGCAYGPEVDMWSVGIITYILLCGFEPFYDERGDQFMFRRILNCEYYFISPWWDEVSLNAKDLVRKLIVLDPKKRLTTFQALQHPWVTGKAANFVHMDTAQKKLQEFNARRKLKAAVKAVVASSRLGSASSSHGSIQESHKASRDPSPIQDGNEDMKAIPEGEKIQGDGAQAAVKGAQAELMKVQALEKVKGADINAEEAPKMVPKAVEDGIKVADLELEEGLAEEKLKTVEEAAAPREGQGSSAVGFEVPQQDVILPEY
# TYRO3 (human), sequence (Q06418 whole entry, looked up): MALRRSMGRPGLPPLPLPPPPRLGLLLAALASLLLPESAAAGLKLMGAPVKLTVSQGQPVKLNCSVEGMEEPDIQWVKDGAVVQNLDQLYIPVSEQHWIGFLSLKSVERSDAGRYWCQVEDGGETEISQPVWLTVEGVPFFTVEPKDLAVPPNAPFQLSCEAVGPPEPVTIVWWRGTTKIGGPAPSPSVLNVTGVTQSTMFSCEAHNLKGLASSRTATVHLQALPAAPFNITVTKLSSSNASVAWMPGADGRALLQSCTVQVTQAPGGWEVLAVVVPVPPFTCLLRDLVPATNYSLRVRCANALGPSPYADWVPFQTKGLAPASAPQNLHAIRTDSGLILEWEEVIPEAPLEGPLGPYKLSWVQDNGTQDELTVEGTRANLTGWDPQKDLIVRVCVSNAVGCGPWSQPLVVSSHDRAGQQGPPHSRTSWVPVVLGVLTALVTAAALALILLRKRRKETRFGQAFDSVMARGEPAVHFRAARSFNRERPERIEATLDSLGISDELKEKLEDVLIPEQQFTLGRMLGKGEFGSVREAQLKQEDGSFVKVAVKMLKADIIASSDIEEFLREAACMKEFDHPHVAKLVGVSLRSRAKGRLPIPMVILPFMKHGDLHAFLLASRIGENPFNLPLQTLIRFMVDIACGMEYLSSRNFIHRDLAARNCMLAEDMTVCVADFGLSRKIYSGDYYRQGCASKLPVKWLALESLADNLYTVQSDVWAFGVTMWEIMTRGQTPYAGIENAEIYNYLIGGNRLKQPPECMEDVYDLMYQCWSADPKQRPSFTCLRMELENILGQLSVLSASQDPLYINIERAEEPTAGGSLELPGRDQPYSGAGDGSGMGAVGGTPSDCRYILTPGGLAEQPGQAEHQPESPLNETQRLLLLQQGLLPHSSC
# LRRK2 (human), sequence (Q5S007 whole entry, looked up): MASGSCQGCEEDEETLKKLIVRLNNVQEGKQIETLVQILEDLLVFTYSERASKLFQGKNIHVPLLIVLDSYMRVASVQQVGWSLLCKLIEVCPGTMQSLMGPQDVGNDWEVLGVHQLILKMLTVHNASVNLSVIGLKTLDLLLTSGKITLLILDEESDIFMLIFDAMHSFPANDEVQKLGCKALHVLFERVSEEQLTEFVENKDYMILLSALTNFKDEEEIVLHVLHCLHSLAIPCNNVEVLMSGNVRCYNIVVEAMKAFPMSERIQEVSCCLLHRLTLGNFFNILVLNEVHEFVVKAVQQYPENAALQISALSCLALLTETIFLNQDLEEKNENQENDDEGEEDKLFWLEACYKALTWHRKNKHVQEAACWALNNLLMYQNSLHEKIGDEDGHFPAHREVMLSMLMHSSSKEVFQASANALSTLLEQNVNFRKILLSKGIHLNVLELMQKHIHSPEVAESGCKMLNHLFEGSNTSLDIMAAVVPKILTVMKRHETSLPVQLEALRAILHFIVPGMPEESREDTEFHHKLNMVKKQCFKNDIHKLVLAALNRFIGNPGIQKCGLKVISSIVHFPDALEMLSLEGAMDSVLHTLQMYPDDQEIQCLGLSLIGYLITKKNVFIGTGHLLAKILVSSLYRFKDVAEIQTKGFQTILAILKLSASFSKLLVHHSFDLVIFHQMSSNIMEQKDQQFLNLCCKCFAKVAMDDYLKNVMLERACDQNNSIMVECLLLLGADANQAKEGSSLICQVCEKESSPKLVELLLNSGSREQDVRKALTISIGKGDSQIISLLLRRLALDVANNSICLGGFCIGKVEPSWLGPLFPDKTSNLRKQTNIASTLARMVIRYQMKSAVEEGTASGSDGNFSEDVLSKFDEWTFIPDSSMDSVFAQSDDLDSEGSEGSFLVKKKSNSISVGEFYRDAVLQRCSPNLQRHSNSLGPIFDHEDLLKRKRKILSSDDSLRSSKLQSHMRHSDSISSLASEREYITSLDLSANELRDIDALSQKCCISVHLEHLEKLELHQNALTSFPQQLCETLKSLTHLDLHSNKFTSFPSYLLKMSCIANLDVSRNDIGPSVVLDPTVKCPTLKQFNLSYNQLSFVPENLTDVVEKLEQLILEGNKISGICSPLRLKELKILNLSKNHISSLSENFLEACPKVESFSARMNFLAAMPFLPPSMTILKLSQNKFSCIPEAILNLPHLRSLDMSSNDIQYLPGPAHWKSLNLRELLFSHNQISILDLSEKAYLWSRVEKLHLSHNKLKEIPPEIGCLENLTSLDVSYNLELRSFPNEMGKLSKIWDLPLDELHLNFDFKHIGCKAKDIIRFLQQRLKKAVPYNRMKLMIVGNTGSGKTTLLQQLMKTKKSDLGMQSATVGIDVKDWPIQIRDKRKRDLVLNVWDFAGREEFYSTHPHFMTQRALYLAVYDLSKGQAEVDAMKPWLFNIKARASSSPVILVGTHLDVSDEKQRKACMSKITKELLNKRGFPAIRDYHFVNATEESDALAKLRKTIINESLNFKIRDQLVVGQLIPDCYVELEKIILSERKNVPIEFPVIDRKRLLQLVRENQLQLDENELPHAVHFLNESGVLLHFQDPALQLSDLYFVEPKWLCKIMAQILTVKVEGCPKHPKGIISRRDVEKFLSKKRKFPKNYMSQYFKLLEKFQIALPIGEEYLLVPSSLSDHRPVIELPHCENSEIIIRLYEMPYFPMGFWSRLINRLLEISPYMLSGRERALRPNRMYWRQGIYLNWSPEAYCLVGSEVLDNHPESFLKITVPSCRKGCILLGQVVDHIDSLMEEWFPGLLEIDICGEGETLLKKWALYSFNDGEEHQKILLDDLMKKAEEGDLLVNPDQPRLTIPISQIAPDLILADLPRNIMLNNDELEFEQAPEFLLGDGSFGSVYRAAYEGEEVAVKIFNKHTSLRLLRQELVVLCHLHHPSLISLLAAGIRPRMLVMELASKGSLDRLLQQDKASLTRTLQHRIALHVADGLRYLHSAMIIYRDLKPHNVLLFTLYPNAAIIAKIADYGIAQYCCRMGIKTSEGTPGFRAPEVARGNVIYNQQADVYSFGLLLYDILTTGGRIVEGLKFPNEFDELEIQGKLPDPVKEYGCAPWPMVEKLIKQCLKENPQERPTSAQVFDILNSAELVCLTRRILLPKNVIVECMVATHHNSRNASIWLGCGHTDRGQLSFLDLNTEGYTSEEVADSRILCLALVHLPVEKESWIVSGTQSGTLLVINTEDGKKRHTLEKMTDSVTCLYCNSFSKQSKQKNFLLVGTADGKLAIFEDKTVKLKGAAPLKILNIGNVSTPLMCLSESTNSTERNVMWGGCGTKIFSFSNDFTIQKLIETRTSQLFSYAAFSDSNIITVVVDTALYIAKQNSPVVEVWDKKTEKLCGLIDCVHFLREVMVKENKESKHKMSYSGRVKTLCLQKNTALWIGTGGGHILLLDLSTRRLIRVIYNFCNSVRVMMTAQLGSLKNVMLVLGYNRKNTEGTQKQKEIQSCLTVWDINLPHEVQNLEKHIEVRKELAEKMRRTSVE
# HCK (human), sequence (P08631 whole entry, looked up): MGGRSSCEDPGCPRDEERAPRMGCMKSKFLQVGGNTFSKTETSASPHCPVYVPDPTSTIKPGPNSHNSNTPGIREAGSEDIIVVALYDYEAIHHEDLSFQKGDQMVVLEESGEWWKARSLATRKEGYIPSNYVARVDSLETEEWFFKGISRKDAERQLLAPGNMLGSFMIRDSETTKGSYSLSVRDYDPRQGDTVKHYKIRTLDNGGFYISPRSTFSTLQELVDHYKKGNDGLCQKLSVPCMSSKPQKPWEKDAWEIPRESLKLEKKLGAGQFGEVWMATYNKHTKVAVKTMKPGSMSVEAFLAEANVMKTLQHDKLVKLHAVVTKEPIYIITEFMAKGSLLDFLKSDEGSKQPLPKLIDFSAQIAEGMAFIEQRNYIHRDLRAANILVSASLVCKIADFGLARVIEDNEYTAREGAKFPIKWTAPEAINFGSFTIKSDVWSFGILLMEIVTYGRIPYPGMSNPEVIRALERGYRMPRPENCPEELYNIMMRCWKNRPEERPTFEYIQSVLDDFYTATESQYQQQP
compound,measurement,setting,value
O=c1cc(-c2cccc3c2Sc2ccccc2S3)oc(N2CCOCC2)c1,residual activity,[1],104%
same,residual activity,[2],102%
same,residual activity,[3],105%
same,residual activity,[4],115%
same,residual activity,[5],113%
same,residual activity,[6],88.5%
same,residual activity,[7],104%
same,residual activity,[8],93.6%
same,residual activity,[9],98.7%
same,residual activity,[10],99.3%
same,residual activity,[11],100%
same,residual activity,[12],116%
same,residual activity,[13],110%
same,residual activity,[14],105%
same,residual activity,[15],106%
same,residual activity,[16],98.3%
same,residual activity,[17],111%
same,residual activity,[18],114%
same,residual activity,[19],105%
same,residual activity,[20],113%
same,residual activity,[21],108%
same,residual activity,[22],99.9%
same,residual activity,[23],103%
same,residual activity,[24],89.4%
same,residual activity,[25],94.4%
same,residual activity,[26],93.8%
same,residual activity,[27],115%
same,residual activity,[28],116%
same,residual activity,[29],102%
same,residual activity,[30],97.6%
same,residual activity,[31],94.1%
same,residual activity,[32],112%
same,residual activity,[33],98%
same,residual activity,[34],93.3%
same,residual activity,[35],112%
same,residual activity,[36],97.4%
same,residual activity,[37],84%
same,residual activity,[38],94%
same,residual activity,[39],102%
same,residual activity,[40],107%
same,residual activity,[41],95.5%
same,residual activity,[42],102%
Nc1n[nH]c2nnc(-c3c(-c4ccccc4)nn4ccccc34)cc12,residual activity,[1],104%
same,residual activity,[2],91.8%
same,residual activity,[3],99.7%
same,residual activity,[4],98.8%
same,residual activity,[5],93.6%
same,residual activity,[6],95.1%
same,residual activity,[7],103%
same,residual activity,[8],103%
same,residual activity,[9],102%
same,residual activity,[10],94.6%
same,residual activity,[11],96.6%
same,residual activity,[12],101%
same,residual activity,[13],73.8%
same,residual activity,[14],106%
same,residual activity,[15],95.9%
same,residual activity,[16],92.4%
same,residual activity,[17],102%
same,residual activity,[18],104%
same,residual activity,[19],97.6%
same,residual activity,[20],99.2%
same,residual activity,[21],102%
same,residual activity,[22],102%
same,residual activity,[23],95.3%
same,residual activity,[24],91.1%
same,residual activity,[25],98.2%
same,residual activity,[26],93%
same,residual activity,[27],101%
same,residual activity,[28],111%
same,residual activity,[29],91.1%
same,residual activity,[30],95.1%
same,residual activity,[31],90.5%
same,residual activity,[32],125%
same,residual activity,[33],96.1%
same,residual activity,[34],93.7%
same,residual activity,[35],89.2%
same,residual activity,[36],94.8%
same,residual activity,[37],98%
same,residual activity,[38],94.2%
same,residual activity,[39],104%
same,residual activity,[40],102%
same,residual activity,[41],99.9%
same,residual activity,[42],83.9%
